We go through one compound from patent US12274711B2, “Method of determining Acute Myeloid Leukemia response to treatment with farnesyltransferase inhibitors” (Janssen Pharmaceutica NV, priority 2010, dated 2025).

Assay [1] concerns previously untreated, poor-risk AML. In words: Phase 2 study of tipifarnib in older adults with previously untreated, poor-risk AML (clinical response, overall survival). In kind it is in vivo, human. The text has this:
In an exemplary example, bone marrow samples are collected from an open label, multicenter, non-comparative phase 2 study investigating the efficacy and safety of farnesyltransferase inhibition with tipifarnib (R115777, ZARNESTRA®) in older adults with previously untreated, poor-risk AML.
Briefly, HI was defined as any bone marrow blast count less than 5% or a reduction in bone marrow blasts by at least half. Progressive disease (PD) was defined as either >50% increase in bone marrow or circulating blast % from baseline, or new appearance of circulating blasts (on at least 2 consecutive occasions). Stable disease (SD) was defined as any response not meeting CR, PR, HI, or PD criteria.
This study examined gene expression profiles of leukemic bone marrow samples from patients enrolled in a Phase 2 clinical trial of the farnesyltransferase inhibitor tipifarnib in elderly patients with previously untreated poor-risk acute myelogenous leukemia. Lancet et al. (2006). Bone marrow from 67 patients was collected before treatment with tipifarnib and leukemic myeloid cells were enriched by Ficoll-density centrifugation (Table 1). Good quality total RNA from 13 responders (9 CR, 4 HI), 8 stable disease and 13 progressive disease patients was amplified, labeled, and hybridized to the Affymetrix U133A GeneChip. A total of 30 samples were evaluated by qPCR for validation of specific genes and 32 samples were evaluated for N-RAS mutational status.

The test system of a further assay is relapsed/refractory AML. In words: Independent dataset of 54 relapsed/refractory AML patients treated with tipifarnib. In kind it is in vivo, human. As to conditions: 54 relapsed/refractory AML patient samples. The procedure: External validation of the TSP classifier was performed in an independent microarray dataset comprising of 54 relapsed/refractory AML patient samples. A diagnostic assay that predicts likely response to a cancer therapy should have a high sensitivity (and negative predictive value) since it is important to capture as many potential responders as possible. Therefore, to define an appropriate cutoff for testing the TSP classifier the need to obtain a high sensitivity of predicting responders while maintaining an acceptable level of specificity was considered. In the training set, the level of specificity that could be achieved ranged from approximately 30% to 100% when the sensitivity was set at 100% to 80%, respectively. To ensure the classifier would predict as many responders as possible a conservative cutoff that provided a specificity of approximately 60% in the training set was tested. When this cutoff was applied to the independent testing set of relapsed/refractory AML, the RASGRP1:APTX gene classifier stratified responders with 92% NPV and 27.6% PPV (compared to 18.5% prevalence) (FIG. 3C). The associated odds ratio for being a responder was 4.38.

The mark [2] stands for this setting: Kaplan Meier analysis, RASGRP1 classifier, newly diagnosed AML (FIG. 1B).
Where [3] appears, read: qPCR RASGRP1:APTX classifier, cut-point 0, 30 patients (FIG. 3C).

For `Cn1cncc1[C@@](N)(c1ccc(Cl)cc1)c1ccc2c(c1)c(-c1cccc(Cl)c1)cc(=O)n2C` [tipifarnib], in assay [1] (All treated patients (n=158)), the “CR, (%)” value is listed as “(14) %”; the “CR, no.” value came to 22; the “HI, (%)” value was “(8) %”; the “HI, no.” value stood at 12. In assay [1] (All treated patients (n=158)), the “PD, (%)” value is given as “(37) %”; the “PD, no.” value is 58; the “PR, (%)” value is recorded as “(2) %”; the “PR, no.” value was determined as 3. In assay [1] (setting [2]), the “median overall survival of the responders” value amounted to 386 days and the “median overall survival of those with progressive disease” value was 68 days. Further, in assay [1] (PGx profiled patients (n=67)), the “CR, (%)” value was “(21) %”; the “CR, no.” value was found to be 14; the “HI, (%)” value is “(10) %”; the “HI, no.” value was 7. In assay [1] (PGx profiled patients (n=67)), the “PD, (%)” value is “(44) %”; the “PD, no.” value amounted to 30; the “PR, (%)” value was “(2) %”; the “PR, no.” value stood at 1. For the same compound, in assay [1] (setting [3]), the “median overall survival of the predicted resistant patients” value is recorded as 82 days and the “median overall survival of those classified as responders” value is given as 295 days. In addition, the prevalence of responders in the assay with relapsed/refractory AML amounted to 18.5%.
